Measurements published in ChEMBL document CHEMBL4311992, “Discovery of 3-(((9H-purin-6-yl)amino)methyl)-4,6-dimethylpyridin-2(1H)-one derivatives as novel tubulin polymerization inhibitors for treatment of cancer” (Eur J Med Chem, 2019).
The source made the active and inactive calls. The rule behind the calls is not given here.

Columns and labels:
HT-29 = assay: Antiproliferative activity against human HT-29 cells assessed as reduction in cell viability after 72 hrs by MTT assay; type: functional, cell-based; conditions: HT-29, 72 h
[1] = system: Serine/threonine-protein kinase Sgk2 (Homo sapiens), Q9HBY8 [S416D]; assay: Inhibition of recombinant human SGK2 S416D mutant (54 to end residues) assessed as residual activity at 10 uM using GRPRTSSFAEGKK as substrate measured after 40 mins in presence of [gamma33P]ATP by scintillation counting method
Homo sapiens = species on record: Homo sapiens; assay: Inhibition of recombinant full-length human PKBalpha S478G mutant assessed as residual activity at 10 uM using GRPRTSSFAEGKK as substrate measured after 40 mins in presence of [gamma33P]ATP by scintillation counting method
[2] = molecular target: Serine/threonine-protein kinase Chk1 (Homo sapiens) (UniProt O14757); assay: Inhibition of recombinant full length human CHK1 assessed as residual activity at 10 uM using KKKVSRSGLYRSPSMPENLNRPR as substrate measured after 40 mins in presence of [gamma33P]ATP by scintillation counting method
Sequence of Serine/threonine-protein kinase Chk1 (Homo sapiens) (O14757 whole entry): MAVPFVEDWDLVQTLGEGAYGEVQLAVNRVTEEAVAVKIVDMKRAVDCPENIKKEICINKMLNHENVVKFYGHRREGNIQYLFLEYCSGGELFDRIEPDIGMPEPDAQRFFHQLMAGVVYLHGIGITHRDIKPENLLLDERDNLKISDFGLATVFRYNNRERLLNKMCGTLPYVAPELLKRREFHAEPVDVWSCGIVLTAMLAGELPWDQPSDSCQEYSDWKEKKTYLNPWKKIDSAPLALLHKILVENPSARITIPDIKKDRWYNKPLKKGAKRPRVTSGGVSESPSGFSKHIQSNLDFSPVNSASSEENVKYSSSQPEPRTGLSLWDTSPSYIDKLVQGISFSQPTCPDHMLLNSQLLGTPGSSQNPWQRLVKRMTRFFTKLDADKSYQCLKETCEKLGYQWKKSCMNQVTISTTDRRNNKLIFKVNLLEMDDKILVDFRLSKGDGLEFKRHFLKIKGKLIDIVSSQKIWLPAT

[3] = molecular target: Histone-lysine N-methyltransferase EZH2 (Homo sapiens) (UniProt Q15910); assay: Inhibition of EZH2 (unknown origin) at 1 uM relative to control
[4] = system: Fibroblast growth factor receptor 2 (Homo sapiens), P21802 [N549H]; assay: Inhibition of recombinant human FGFR2 N549H mutant (456 to 770 residues) assessed as residual activity at 10 uM using GGEEEEYFELVKKKK as substrate measured after 40 mins in presence of [gamma33P]ATP by scintillation counting method
Sequence of Fibroblast growth factor receptor 2 (Homo sapiens), P21802 [N549H] (P21802 whole entry N549H, the tested form may be a part): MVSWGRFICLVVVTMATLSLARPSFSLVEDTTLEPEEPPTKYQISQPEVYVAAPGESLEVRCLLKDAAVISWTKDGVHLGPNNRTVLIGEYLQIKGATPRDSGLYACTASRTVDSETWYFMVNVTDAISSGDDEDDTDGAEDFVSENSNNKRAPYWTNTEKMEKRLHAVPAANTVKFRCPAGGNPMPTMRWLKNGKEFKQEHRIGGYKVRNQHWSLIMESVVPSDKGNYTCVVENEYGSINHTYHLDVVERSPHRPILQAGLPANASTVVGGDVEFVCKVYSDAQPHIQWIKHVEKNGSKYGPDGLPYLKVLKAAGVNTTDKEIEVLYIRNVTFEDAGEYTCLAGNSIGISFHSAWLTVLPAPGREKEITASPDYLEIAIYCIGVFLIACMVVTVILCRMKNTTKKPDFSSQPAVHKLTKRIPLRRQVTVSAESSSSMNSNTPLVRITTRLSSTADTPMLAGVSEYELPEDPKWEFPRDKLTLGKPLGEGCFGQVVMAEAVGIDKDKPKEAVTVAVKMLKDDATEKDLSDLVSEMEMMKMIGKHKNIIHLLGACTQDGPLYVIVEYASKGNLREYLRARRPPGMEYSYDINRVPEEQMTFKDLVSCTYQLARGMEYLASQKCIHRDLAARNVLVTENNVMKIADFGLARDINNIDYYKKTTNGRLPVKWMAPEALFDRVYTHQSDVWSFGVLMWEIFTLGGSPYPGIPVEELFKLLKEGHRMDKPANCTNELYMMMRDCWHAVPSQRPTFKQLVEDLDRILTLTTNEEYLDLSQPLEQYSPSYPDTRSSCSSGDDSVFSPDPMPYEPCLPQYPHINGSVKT

[5] = system: Fibroblast growth factor receptor 1 (Homo sapiens), P11362 [V561M]; assay: Inhibition of recombinant human FGFR1 V561M mutant (456 to 765 residues) assessed as residual activity at 10 uM using GGEEEEYFELVKKKK as substrate measured after 40 mins in presence of [gamma33P]ATP by scintillation counting method
Sequence of Fibroblast growth factor receptor 1 (Homo sapiens), P11362 [V561M] (P11362 whole entry V561M, the tested form may be a part): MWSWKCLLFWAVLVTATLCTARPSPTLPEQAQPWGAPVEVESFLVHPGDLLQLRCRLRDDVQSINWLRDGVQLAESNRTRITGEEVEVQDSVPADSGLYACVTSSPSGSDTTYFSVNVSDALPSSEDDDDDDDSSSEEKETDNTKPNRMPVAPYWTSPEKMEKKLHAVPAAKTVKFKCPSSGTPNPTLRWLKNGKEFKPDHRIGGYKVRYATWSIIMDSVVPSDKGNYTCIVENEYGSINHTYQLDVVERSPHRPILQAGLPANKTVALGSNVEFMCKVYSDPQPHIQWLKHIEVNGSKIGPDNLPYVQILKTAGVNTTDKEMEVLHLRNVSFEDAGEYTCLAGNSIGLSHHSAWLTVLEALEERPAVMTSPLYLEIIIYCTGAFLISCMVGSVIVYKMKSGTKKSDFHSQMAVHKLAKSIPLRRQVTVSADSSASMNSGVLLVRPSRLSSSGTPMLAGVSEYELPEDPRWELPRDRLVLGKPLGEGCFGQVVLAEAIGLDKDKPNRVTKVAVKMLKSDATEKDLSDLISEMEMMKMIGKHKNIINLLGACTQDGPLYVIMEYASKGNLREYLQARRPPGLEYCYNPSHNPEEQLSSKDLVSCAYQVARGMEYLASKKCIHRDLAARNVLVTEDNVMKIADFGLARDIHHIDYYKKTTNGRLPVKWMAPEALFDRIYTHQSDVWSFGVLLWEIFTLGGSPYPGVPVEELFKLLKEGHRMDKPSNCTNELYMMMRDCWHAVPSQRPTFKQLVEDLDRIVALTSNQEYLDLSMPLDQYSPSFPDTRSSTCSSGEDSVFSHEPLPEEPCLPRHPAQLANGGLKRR

[6] = molecular target: Bone morphogenetic protein receptor type-1B (Homo sapiens) (UniProt O00238); assay: Inhibition of recombinant human ALK6 (148 to end residues) assessed as residual activity at 10 uM using casein as substrate measured after 40 mins in presence of [gamma33P]ATP by scintillation counting method
Sequence of Bone morphogenetic protein receptor type-1B (Homo sapiens) (O00238 whole entry): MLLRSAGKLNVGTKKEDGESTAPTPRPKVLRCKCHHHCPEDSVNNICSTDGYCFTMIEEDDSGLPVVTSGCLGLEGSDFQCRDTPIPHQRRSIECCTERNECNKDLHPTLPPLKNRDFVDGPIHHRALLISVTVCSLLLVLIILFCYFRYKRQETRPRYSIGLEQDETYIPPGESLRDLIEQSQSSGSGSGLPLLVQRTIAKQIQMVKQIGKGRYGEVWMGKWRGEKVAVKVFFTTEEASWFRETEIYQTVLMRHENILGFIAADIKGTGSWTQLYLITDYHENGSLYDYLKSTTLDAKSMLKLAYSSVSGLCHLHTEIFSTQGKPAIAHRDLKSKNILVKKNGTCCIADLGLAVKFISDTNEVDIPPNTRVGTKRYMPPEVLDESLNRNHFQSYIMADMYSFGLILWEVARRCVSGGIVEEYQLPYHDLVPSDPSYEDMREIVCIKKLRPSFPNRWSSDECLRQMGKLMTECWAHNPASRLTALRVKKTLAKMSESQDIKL

[7] = molecular target: AP2-associated protein kinase 1 (Homo sapiens) (UniProt Q2M2I8); assay: Inhibition of human AAK1 assessed as residual activity at 10 uM using peptide substrate measured after 120 mins in presence of [gamma33P]ATP by scintillation counting method
Sequence of AP2-associated protein kinase 1 (Homo sapiens) (Q2M2I8 whole entry, looked up): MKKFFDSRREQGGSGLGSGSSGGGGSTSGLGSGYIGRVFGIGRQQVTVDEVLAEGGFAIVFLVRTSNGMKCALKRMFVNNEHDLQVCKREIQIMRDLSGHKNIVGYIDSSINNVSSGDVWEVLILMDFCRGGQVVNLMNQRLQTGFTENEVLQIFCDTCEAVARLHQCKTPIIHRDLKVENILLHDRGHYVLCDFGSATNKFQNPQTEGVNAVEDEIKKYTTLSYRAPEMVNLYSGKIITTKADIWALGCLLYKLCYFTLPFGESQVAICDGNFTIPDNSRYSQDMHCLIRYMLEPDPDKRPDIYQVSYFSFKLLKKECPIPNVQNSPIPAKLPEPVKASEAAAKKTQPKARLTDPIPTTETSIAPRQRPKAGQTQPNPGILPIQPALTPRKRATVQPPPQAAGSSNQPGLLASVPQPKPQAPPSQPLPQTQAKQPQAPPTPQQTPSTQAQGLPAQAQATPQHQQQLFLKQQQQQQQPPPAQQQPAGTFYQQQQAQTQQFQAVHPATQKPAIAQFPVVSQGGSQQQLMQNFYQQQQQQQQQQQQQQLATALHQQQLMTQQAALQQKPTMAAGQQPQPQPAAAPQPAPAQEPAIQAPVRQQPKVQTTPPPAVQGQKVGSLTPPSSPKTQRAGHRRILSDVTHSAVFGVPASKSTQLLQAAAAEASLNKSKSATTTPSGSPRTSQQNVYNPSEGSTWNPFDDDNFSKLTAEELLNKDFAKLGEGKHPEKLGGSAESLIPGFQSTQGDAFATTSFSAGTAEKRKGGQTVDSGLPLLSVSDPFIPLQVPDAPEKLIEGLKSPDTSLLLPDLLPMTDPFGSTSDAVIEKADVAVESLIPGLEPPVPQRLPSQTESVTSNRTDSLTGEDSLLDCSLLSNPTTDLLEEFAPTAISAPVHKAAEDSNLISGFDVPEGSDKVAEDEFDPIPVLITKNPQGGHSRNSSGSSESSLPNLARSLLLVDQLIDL

Mus musculus = species on record: Mus musculus; assay: Inhibition of recombinant mouse ABL L782P/G784R/W785L/L786V mutant (27 to end residues) assessed as residual activity at 10 uM using EAIYAAPFAKKK as substrate measured after 40 mins in presence of [gamma33P]ATP by scintillation counting method
[8] = molecular target: Serine/threonine-protein kinase 35 (Homo sapiens) (UniProt Q8TDR2); assay: Inhibition of recombinant full length human CLIK1 assessed as residual activity at 10 uM using RSRSRSRSRSRSRSR as substrate measured after 40 mins in presence of [gamma33P]ATP by scintillation counting method
SW-620 = assay: Induction of apoptosis in human SW620 cells assessed as decrease in Bcl2 expression up to 200 nM measured after 48 hrs by Western blot analysis; type: functional, cell-based
[9] = molecular target: Dual specificity tyrosine-phosphorylation-regulated kinase 3 (Homo sapiens) (UniProt O43781); assay: Inhibition of recombinant full-length human DYRK3 assessed as residual activity at 10 uM using RRRFRPASPLRGPPK as substrate measured after 40 mins in presence of [gamma33P]ATP by scintillation counting method
[10] = molecular target: Ephrin type-A receptor 2 (Homo sapiens) (UniProt P29317); assay: Inhibition of recombinant human EphA2 (596 to 900 residues) assessed as residual activity at 10 uM using poly(Glu, Tyr) 4:1 as substrate measured after 40 mins in presence of [gamma33P]ATP by scintillation counting method
[11] = molecular target: Tyrosine-protein kinase HCK (Homo sapiens) (UniProt P08631); assay: Inhibition of recombinant human activated HCK (230 to 497 residues) assessed as residual activity at 10 uM using GGMEDIYFEFMGGKKK as substrate measured after 40 mins in presence of [gamma33P]ATP by scintillation counting method
[12] = molecular target: Mitogen-activated protein kinase 10 (Homo sapiens) (UniProt P53779); assay: Inhibition of recombinant full-length human JNK3 assessed as residual activity at 10 uM using peptide substrate measured after 40 mins in presence of [gamma33P]ATP by scintillation counting method
Sequence of Mitogen-activated protein kinase 10 (Homo sapiens) (P53779 whole entry): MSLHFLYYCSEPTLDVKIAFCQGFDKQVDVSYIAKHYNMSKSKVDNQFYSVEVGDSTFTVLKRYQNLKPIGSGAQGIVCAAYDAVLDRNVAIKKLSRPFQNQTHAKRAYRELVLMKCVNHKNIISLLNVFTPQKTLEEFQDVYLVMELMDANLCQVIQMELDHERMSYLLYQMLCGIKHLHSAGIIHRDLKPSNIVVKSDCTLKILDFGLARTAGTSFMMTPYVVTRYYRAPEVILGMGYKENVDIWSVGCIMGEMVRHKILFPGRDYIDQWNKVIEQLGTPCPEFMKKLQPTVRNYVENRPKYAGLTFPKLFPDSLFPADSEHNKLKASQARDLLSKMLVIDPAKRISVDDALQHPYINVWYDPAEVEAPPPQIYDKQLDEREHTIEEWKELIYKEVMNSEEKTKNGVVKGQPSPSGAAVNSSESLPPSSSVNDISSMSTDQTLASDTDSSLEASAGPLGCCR

[13] = molecular target: Serine/threonine-protein kinase STK11 (Homo sapiens) (UniProt Q15831); assay: Inhibition of recombinant full-length human LKB1 assessed as residual activity at 10 uM using LSNLYHQGKFLQTFCGSPLYRRR as substrate measured after 40 mins in presence of [gamma33P]ATP by scintillation counting method
[14] = molecular target: Serine/threonine-protein kinase PAK 5 (Homo sapiens) (UniProt Q9P286); assay: Inhibition of recombinant human PAK5 (425 to end residues) assessed as residual activity at 10 uM using RRRLSFAEPG as substrate measured after 40 mins in presence of [gamma33P]ATP by scintillation counting method
[15] = molecular target: cAMP-dependent protein kinase catalytic subunit alpha (Homo sapiens) (UniProt P17612); assay: Inhibition of recombinant full-length human PKA assessed as residual activity at 10 uM using Kemptide as substrate measured after 40 mins in presence of [gamma33P]ATP by scintillation counting method
[16] = molecular target: Transcription initiation factor TFIID subunit 1-like (Homo sapiens) (UniProt Q8IZX4); assay: Inhibition of human TAF1L (1428 to end residues) using RRRFRPASPLRGPPK as substrate measured after 120 mins in presence of [gamma33P]ATP by scintillation counting method; parameters: scale not given: the % may be the effect or the level left
[17] = molecular target: Mitogen-activated protein kinase kinase kinase 7 (Homo sapiens) (UniProt O43318); assay: Inhibition of human TAK1 (1 to 303 residues) using casein as substrate measured after 40 mins in presence of [gamma33P]ATP by scintillation counting method; parameters: scale not given: the % may be the effect or the level left
Sequence of Mitogen-activated protein kinase kinase kinase 7 (Homo sapiens) (O43318 whole entry, the tested form may be a part): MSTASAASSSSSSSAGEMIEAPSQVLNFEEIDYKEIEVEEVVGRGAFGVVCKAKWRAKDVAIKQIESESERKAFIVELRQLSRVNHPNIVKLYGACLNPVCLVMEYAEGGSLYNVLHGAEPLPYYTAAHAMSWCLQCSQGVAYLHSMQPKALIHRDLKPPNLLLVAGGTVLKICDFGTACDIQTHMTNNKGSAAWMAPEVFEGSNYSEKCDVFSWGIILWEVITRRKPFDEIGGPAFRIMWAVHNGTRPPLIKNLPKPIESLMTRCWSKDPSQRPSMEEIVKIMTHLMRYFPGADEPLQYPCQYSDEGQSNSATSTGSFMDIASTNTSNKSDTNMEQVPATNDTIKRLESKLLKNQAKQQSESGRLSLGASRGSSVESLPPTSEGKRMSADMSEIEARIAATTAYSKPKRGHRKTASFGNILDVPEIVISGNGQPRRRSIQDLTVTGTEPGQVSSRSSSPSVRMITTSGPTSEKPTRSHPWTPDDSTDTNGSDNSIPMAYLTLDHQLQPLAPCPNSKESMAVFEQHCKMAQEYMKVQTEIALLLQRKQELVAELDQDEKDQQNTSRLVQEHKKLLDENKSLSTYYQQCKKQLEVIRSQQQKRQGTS

[18] = molecular target: Serine/threonine-protein kinase ULK1 (Homo sapiens) (UniProt O75385); assay: Inhibition of human ULK1 (1 to 314 residues) using casein as substrate measured after 40 mins in presence of [gamma33P]ATP by scintillation counting method; parameters: scale not given: the % may be the effect or the level left
[19] = Toxicity in nude BALB/c mouse assessed as change in uric acid level at 40 to 80 mg/kg, po once daily for 4 weeks measured post-last dose; type: organism-based; conditions: in vivo, 672 h
[20] = Toxicity in nude BALB/c mouse assessed as change in AST level at 40 to 80 mg/kg, po once daily for 4 weeks measured post-last dose; type: organism-based; conditions: in vivo, 672 h
HCT-116 = assay: Induction of apoptosis in human HCT116 cells assessed as necrotic cells at 100 nM measured after 48 hrs by Annexin V-FITC/propidium iodide staining-based flow cytometry (reference value: 1.16%); type: functional

Cc1cc(C)c(CNc2nc(Cl)nc3c2ncn3C2CCCC2)c(=O)[nH]1
IC50 (HT-29): 0.071 µM | Activity [1]: 112% | Activity (Homo sapiens): 105% | Activity [2]: 106% | inhibition [3]: -10% | Activity [4]: 88% | Activity [5]: 95.5% | Activity [6]: 103% | Activity [7]: 105% | Activity (Mus musculus): 101% | Activity [8]: 65.5% | Activity (SW-620): Active | Activity [9]: 122% | Activity [10]: 91% | Activity [11]: 115% | Activity [12]: 142% | Activity [13]: 110% | Activity [14]: 110% | Activity [15]: 91% | Activity [16]: 108% | Activity [17]: 98.5% | Activity [18]: 104% | Activity [19]: Non-Toxic | Activity [20]: Non-Toxic | Activity (HCT-116): 5.57%
